Reference: patent publication US11453669B2, “Polycyclic pyridone derivative” (Shionogi & Co., Ltd., priority 2018, dated 2022)
Like-named read-outs stand apart in the source and are kept apart here.

What was measured:
[1] = system: HIV mutant strain 1 (E138K/G140S/Q148H/N155H); type: cell-based; details: FC=EC50 of the mutant strain/EC50 of the wild strain, HeLa-CD4 cells
Procedure: (§1) Serial dilutions of a test sample were prepared in a 96-well microplate (50 μL/well). 2.5×10^5 cells/mL of a HeLa-CD4 cell suspension was dispensed at 100 μL/well to the plate containing the test sample. Then, an HIV virus solution (wild strain and mutant strain) was dispensed at 50 μL/well. The plate was mixed with a plate mixer and cultured for 3 days in a CO2 incubator. The culture supernatant in each well was removed by suction. A cell lysis buffer in a reporter assay kit was dispensed at 100 μL/well, and the plate was frozen in a freezer (−80° C.). The plate frozen in a freezer was thawed at room temperature, then mixed with a plate mixer, and centrifuged at 1,200 rpm for 5 minutes. The supernatant of each well was dispensed at 20 μL/well to a 96-well microplate (BLACK). A chemiluminescent in the reporter assay kit reagent was dispensed at 100 μL/well and reacted at room temperature for approximately 1 hour. Then, luminescence intensity was measured using MicroBeta TRILUX.

[2] = system: HIV mutant strain 2 (E92Q/E138T/G140S/Q148H); type: cell-based; details: FC=EC50 of the mutant strain/EC50 of the wild strain, HeLa-CD4 cells
Procedure: as §1

HIV = test: Anti-HIV activity (MT-4 cells, MTT); type: cell-based; details: Human immunodeficiency virus 1, MT4, 96 h, read-out: EC50_nM (50% HIV inhibitory concentration)
Procedure: Serial dilutions of a test sample were prepared in a 96-well microplate (50 μL/well). 2.5×10^5 cells/mL of an MT-4 cell suspension was dispensed at 100 μL/well to the plate containing the test sample. Then, an HIV virus solution was dispensed at 50 μL/well. The plate was mixed with a plate mixer and cultured for 4 days in a CO2 incubator. An MTT (3-(4,5-dimethylthiazol-2-yl)-2,5-diphenyltetrazolium bromide) solution was dispensed at 30 μL/well. The plate was reacted for 1 hour in a CO2 incubator. 150 μL of the supernatant was removed from each well so as not to take up the cells. 150 μL of a cell lysis solution was added to each well and well mixed with a plate mixer until the cells were completely lysed. The absorbance of the mixed plate was measured at two wavelengths of 560 nm and 690 nm using a microplate reader.

[3] = molecular target: T1, Voltage gated sodium channel (Nav1.5 channel) encoded by SCN5A gene (Homo sapiens, UniProt Q14524); test: Nav test (QPatch whole cell patch clamp); type: cell-based; details: HEK cells expressing Nav1.5, applied 5 minutes or more, room temperature
T1 construct: expressed in transfected cells; host or cells: HEK cells
Procedure: A cell was retained at a membrane potential of −100 mV by whole cell patch clamp method using a fully automated patch clamp system (QPatch; Sophion Bioscience A/S), and INa induced by depolarization pulse stimulation at −10 mV for 20 ms was recorded. […] The extracellular solution in which the medium and the compound of the present invention had been dissolved at each objective concentration was applied to the cell for 5 minutes or more under conditions of room temperature.

[4] = type: in vitro ADME; details: human, 30 min, 0.5 μmol/L, pH 7.4
Procedure: Using commercially available pooled human liver microsomes, a compound of the present invention was reacted for a constant time, and a remaining rate was calculated by comparing a reacted sample and an unreacted sample, thereby, a degree at which the compound of the present invention was metabolized in liver was assessed.
A reaction was performed (oxidative reaction) at 37° C. for 0 minute or 30 minutes in the presence of 1 mmol/L NADPH in 0.2 mL of a buffer solution (50 mmol/L Tris-HCl pH 7.4, 150 mmol/L potassium chloride, 10 mmol/L magnesium chloride) containing 0.5 mg protein/mL of human liver microsomes. After the reaction, 50 μL of the reaction solution was added to 100 μL of a solution of methanol/acetonitrile=1/1 (v/v), and the mixture was mixed and centrifuged at 3000 rpm for 15 minutes. The compound of the present invention in the centrifugation supernatant was quantified by LC/MS/MS or solid-phase extraction (SPE)/MS. The amount of the compound of the present invention remaining after the reaction was calculated with the amount of the compound at 0 minutes of the reaction defined as 100%.

[5] = Clearance evaluation test (rat, intravenous); type: in vivo; details: plasma, 1 umol/kg, rats, intravenous 1 μmol/kg; for half-life: read-out: elimination half-life (t½) (converted); for clearance: read-out: total body clearance (CLtot)
Text: Experimental Material and Method
(1) Animals used: rats were used.
(2) Rearing conditions: the rats were allowed to freely take solid feed and sterilized tap water.
(3) Dose and grouping setting: a given dose was intravenously administered. Groups were set as follows:
Intravenous administration: 1 μmol/kg (n=2)
(4) Preparation of dosing solution: the test sample was solubilized using a solvent of dimethyl sulfoxide/propylene glycol=1/1 and administered.
(5) Administration method: the test sample was administered to the tail vein through a syringe with an injection needle.
(6) Evaluation item: blood was collected over time, and the concentration of the compound of the present invention in plasma was measured using LC/MS/MS.
(7) Statistical analysis: total body clearance (CLtot) and elimination half-life (t½) were calculated as to change in the concentration of the compound of the present invention in plasma by the moment analysis method.

T1 sequence (Q14524 whole entry): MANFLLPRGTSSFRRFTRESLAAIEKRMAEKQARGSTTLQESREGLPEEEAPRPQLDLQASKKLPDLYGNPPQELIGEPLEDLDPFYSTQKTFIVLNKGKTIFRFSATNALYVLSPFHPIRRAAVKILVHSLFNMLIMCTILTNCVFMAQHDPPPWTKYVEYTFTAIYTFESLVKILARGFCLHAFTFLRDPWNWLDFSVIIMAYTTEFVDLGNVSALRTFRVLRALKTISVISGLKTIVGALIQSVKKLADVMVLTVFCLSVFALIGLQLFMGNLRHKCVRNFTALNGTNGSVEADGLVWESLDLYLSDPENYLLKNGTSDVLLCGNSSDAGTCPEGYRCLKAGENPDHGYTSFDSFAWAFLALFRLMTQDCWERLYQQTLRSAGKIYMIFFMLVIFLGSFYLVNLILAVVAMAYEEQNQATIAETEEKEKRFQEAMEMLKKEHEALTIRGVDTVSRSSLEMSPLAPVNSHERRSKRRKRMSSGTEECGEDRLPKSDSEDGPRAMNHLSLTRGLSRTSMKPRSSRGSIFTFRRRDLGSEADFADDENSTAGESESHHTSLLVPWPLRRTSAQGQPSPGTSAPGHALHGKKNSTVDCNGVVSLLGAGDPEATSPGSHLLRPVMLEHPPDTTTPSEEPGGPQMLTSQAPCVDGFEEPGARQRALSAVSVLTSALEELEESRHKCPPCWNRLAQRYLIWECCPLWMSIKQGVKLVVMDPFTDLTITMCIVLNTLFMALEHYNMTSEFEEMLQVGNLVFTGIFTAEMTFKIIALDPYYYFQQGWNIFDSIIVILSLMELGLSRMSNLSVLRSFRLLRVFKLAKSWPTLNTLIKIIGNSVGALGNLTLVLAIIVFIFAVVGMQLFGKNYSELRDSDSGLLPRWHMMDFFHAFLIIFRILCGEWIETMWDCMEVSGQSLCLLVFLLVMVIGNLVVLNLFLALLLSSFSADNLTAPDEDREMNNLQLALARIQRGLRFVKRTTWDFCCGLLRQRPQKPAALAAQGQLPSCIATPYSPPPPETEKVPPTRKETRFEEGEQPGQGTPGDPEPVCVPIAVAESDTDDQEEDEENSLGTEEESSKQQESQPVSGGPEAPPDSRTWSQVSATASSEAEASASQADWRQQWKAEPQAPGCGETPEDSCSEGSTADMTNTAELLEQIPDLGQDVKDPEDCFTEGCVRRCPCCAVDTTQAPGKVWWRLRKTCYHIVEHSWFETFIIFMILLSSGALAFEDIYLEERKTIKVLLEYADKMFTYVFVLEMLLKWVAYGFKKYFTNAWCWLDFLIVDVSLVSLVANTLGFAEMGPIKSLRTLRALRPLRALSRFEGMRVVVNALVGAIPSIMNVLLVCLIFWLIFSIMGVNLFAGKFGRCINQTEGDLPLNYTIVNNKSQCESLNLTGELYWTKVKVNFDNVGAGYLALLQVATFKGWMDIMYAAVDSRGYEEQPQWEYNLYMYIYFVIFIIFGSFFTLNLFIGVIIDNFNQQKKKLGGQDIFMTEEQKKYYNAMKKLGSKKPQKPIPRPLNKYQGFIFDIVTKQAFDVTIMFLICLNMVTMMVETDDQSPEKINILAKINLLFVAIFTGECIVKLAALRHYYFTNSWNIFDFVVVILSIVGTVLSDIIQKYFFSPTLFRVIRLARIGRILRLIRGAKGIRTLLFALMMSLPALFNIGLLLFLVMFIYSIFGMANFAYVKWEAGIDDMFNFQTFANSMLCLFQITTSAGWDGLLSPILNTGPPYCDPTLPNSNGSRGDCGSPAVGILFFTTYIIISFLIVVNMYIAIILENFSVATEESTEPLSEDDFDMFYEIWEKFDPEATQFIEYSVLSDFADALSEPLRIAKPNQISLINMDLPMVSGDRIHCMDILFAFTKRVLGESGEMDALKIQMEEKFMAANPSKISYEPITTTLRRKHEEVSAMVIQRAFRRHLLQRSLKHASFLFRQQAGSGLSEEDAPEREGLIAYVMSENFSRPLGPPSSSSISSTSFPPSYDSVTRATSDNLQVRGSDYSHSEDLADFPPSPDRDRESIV

EC50 (HIV; MT-4 cells, cultured 4 days, MTT) [nM]	SMILES	FC (fold change) for mutant strain 1 [1]	FC (fold change) for mutant strain 2 [2]	EC50 (HIV) [nM]	ratio of maximum peak current (INa) with compound relative to medium [3] [%]	residual rate [4]	half-life [5] [h]	clearance [5] [mL/h/kg]
	CCN1C(=O)c2c(O)c(=O)c(-c3nnc(Cc4cc(F)c(F)cc4F)s3)cn2N2CCCC[C@@H]12 [Compound I-012]	23	46	4.8	97.1	72.2		
	CN1C(=O)c2c(O)c(=O)c(-c3nnc(Cc4ccc(F)cc4F)s3)cn2N2CCCC[C@@H]12 [II-003]	8.8	12	0.62	96.7	109		
32	CCN1C(=O)c2c(O)c(=O)c(-c3cnn(Cc4ncc(Cl)cc4F)c3)cn2N2CCCC[C@@H]12 [II-013]						35.4	1.36
	CCN1C(=O)c2c(O)c(=O)c(-c3nnc(Cc4c(F)cc(F)cc4F)s3)cn2N2CCOC[C@@H]12 [II-018]	15	20	0.52	109	95.3		
	CCN1C(=O)c2c(O)c(=O)c(-c3nnc(Cc4ccc(F)cc4F)s3)cn2N2[C@H](COC)CC[C@@H]12 [II-024]	8.2	11	0.13	89.3	96.5	23.6	2.18
	CCN1C(=O)c2c(O)c(=O)c(-c3nnc(Cc4ccc(F)cc4F)s3)cn2N2CC[C@@H](C)C[C@@H]12 [II-033]				90.7			
	CCN1C(=O)c2c(O)c(=O)c(-c3nnc(Cc4ccc(F)cc4)s3)cn2N2[C@H](COC)CC[C@@H]12 [II-038]	20	31	0.13	86.2	92.4		
	C[C@H]1CC[C@H]2N(C)C(=O)c3c(O)c(=O)c(-c4nnc(Cc5ccc(F)cc5F)s4)cn3N2C1 [II-041]	5.8	8	0.25	78.8	95.5		
	CCN1C(=O)c2c(O)c(=O)c(-c3nnc(Cc4c(F)cc(F)cc4F)s3)cn2N2C[C@@H]3CC[C@@H](O3)[C@@H]12 [II-046]	17	20	0.6		97.2		
	CCN1C(=O)c2c(O)c(=O)c(-c3nnc(Cc4ccc(F)cc4)s3)cn2N2C[C@@H]3CC[C@@H](O3)[C@@H]12 [II-050]	20	29	0.66		103		
	CCN1C(=O)c2c(O)c(=O)c(-c3nnc(Cc4c(F)cc(F)cc4F)s3)cn2N2C[C@@H]3CC[C@@H](C3)[C@@H]12 [II-052]	2.3	3.5	0.66		83.4		
	CC(C)N1C(=O)c2c(O)c(=O)c(-c3nnc(Cc4c(F)cc(F)cc4F)s3)cn2N2C[C@@H]3CC[C@@H](O3)[C@@H]12 [II-054]	3.5	8.2	1		98.8		
	CN1C(=O)c2c(O)c(=O)c(-c3nnc(Cc4ccc(F)cc4F)s3)cn2N2C[C@@H]3CC[C@@H](C3)[C@@H]12 [II-055]	15	11	0.14		93.9		
	CCN1C(=O)c2c(O)c(=O)c(-c3nnc(Cc4c(F)cc(F)cc4F)s3)cn2N2CC[C@@H](C)C[C@@H]12 [II-057]	3	3.6	1.7		82.5		
	C[C@@H]1CCN2[C@@H](C1)N(C)C(=O)c1c(O)c(=O)c(-c3nnc(Cc4c(F)cc(F)cc4F)s3)cn12 [II-058]	6.1	6.1	0.69		94.2		
	CCN1C(=O)c2c(O)c(=O)c(-c3nnc(Cc4c(F)cc(F)cc4F)s3)cn2N2CC[C@H](C)C[C@@H]12 [II-061]	5.1	7.3	1.8		91.5		
	CCN1C(=O)c2c(O)c(=O)c(-c3nnc(Cc4cc(F)c(F)cc4F)s3)cn2N2C[C@@H]3CC[C@@H](C3)[C@@H]12 [II-062]	8.3	6.6	5.2		71.7		
	CN1C(=O)c2c(O)c(=O)c(-c3nnc(Cc4c(F)cc(F)cc4F)s3)cn2N2C[C@@H]3CC[C@@H](C3)[C@@H]12 [II-063]	14	12	0.6		96.5		
	CCN1C(=O)c2c(O)c(=O)c(-c3nnc(Cc4ccc(F)cc4F)s3)cn2N2C[C@@H](C)CC[C@@H]12 [II-067]	5.2	5.1	0.3		93		
	CCN1C(=O)c2c(O)c(=O)c(-c3nnc(Cc4c(F)cc(F)cc4F)s3)cn2N2C[C@@H](C)CC[C@@H]12 [II-068]	3.5	4.6	1.2		91.3		
	CN1C(=O)c2c(O)c(=O)c(-c3nnc(Cc4cccc(Cl)c4F)s3)cn2N2CCOC[C@@H]12 [II-069]	30	25	0.24		102		
